Converted amounts (≈) assume the structure as drawn. “Also recorded” adds a separate entry of the source.
Tests used:
[1] = tested on: P388 murine leukemia cells; assay: MTT growth inhibition, P388; format: cell-based; settings: Mus musculus, 72 h, 3 days, read-out: Growth Inhibitory Activity IC50
Method: (§1) Camptothecin was used as a control to test the anti-cancer efficacy of the novel camptothecin analogs of the present invention.
(§2) Murine B16 melanoma cell line was grown in RPMI 1640 medium supplemented with 10% heat-inactivated fetal bovine serum, 2 mM L-glutamine, 50 units/mL penicillin, 50 μg/mL streptomycin, 25 μg/mL gentamicin, 0.75% sodium bicarbonate 10 mM HEPES buffer (pH 7.4), and 0.06 mg/mL AntiPPLO. Murine P388 leukemic cell line and human HT-29 colon adenocarcinoma line were maintained in RPMI 1640 medium supplemented with 10% heat-inactivated fetal bovine serum. […] MCF-7M human breast adenocarcinoma was maintained in IMEM supplemented with 5% non heat-inactivated fetal bovine serum and 1 nM insulin.
(§3) [See "Rapid Colorimetric Assay For Cellular Growth And Survival: Application To Proliferation And Cytotoxicity Assays," J. Immun. Meth. 65:55 (1983)]. The assay utilizes a tetrazolium salt to quantitatively measure mammalian cell survival and proliferation by colorimetric methods. In particular, MTT, a pale yellow compound with minimal absorbance, is incubated with cancerous cells in addition to (or in the absence of) a particular camptothecin analog. Living cells with active mitochondrial enzymes metabolize the MTT into a dark blue/purple formazan product with high absorbance. The exact procedure used to test the camptothecin analogs of the present invention is described below.
(§4) Exponentially growing cells (1-2×10^3 cells, unless specified otherwise) in 0.1 mL medium were seeded on day 0 in a 96-well microtiter plate. On day 1, 0.1 mL aliquots of medium containing graded concentrations of test analogs were added to the cell plates. After incubation at 37° C. in a humidified incubator for 3 days (P388, P388/CPT, B16) or 6 days (HT-29, MCF-7M), the plates were centrifuged briefly and 100 μL of the growth medium was removed. Cell cultures were incubated with 50 μL of 3-(4,5-dimethylthiazol-2-yl)-2,5-diphenyl-tetrazolium bromide [MTT, 1 mg/mL in Dulbecco's phosphate buffered saline (PBS)] for 4 hr at 37° C. The resulting purple formazan precipitate was solubilized with 200 μL of 0.04 N HCl in isopropyl alcohol. Absorbance was monitored in a BioRad Model 3550 Microplate Reader at a test wavelength of 570 nm and a reference wavelength of 630 nm. The absorbance is transferred to a PC 486 computer. The IC50 values were determined by a computer program (EZ-ED50) that fits all of the data to the following four-parameter logistic equation:
(§5) Y=(Amax -Amin)/(1+[X/IC^50 ])^n +Amin
(§6) where Amax is the absorbance of control cells, Amin is the absorbance of cells in the presence of highest agent concentration, IC^50 is the concentration of agent that inhibits the cell growth by 50% of control cells (based on the absorbance) and n is the slope of the curve.

[2] = Water solubility in phosphate buffered saline (spectrophotometric assay); format: physicochemical
Method: Approximately 5 mg of test compound was suspended in 1 mL of PBS in a 1.5 mL cryovial. The suspensions were mixed continuously on a Thermolyne vari-mix at room temperature for 24 hr. The suspensions were then centrifuged at 14000×g for 2 minutes to separate the undissolved materials. The supernatant fluids were diluted appropriately with PBS and the ultraviolet spectrums were recorded on a Beckman 640 DU spectrophotometer. For comparison, a standard stock (2 mg/mL in DMSO) solution was prepared for each analog. The ultraviolet spectrum of a 20 of 40 μg/mL standard working solution was measured. The water solubility of each analog was calculated based on the following formula:
Cunknown =Cstandard ×(Aunknown
where Cunknown is the concentration of the unknown solution to be determined; Cstandard is the concentration of the standard working solution (either 20 or 40 μg/mL); Astandard is the absorbance at 350 nm of the standard working solution; DDilution is the appropriate dilution factor used so that the absorbance of the unknown working solution is within the dynamic range of the UV spectrophotometer (less than 2 absorbance units).

murine P388 leukemia = assay: Murine P388 leukemia model in vivo; parameters: species or system mouse (B6D2F1); settings: for Survivors: 30-day
Method: (§7) For the B16 melanoma model, the following procedure was used. B6D2F1 mice receive i.p. inocula of B16 murine melanoma brei prepared from B16 tumors growing s.c. in mice (day 0). […] If dosing information for agents is not available, the maximum tolerated dose (MTD) is determined in initial dose finding experiments in non-tumored mice.
(§8) The mean survival times of all groups are calculated, and results are expressed as mean survival of treated mice/mean survival of control mice (T/C)×100%. A T/C value of 150 means that the mice in the treated group lived 50% longer than those of the control group; this is sometimes referred to as the increase in life span or ILS value.
For the P388 leukemia model, the procedure followed is exactly the same as the aforementioned B16 model. The tumor inoculum is prepared by removing ascited fluid containing P388 cells from tumored B6D2F1 mice, centrifuging the cells, and then resuspending the leukemia cells in saline. Mice receive 1×10^6 P388 cells i.p. on day 0.

[3] = tested on: B16 murine melanoma cells; assay: MTT growth inhibition, B16; format: cell-based; settings: Mus musculus, 72 h, 3 days, read-out: Growth Inhibitory Activity IC50
Method: as §1, §2, §3, §4, §5, §6

murine B16 melanoma = assay: Murine B16 melanoma model in vivo; parameters: species or system mouse (B6D2F1); settings: for Survivors: 60-day
Method: 1) Murine B16 Melanoma Model
as §7, §8
Mice that survive for 60 days are considered long-term survivors, or cures, in the B16 model. The universally accepted cut-off for activity in this model, which has been for years by the National Cancer Institute, is T/C=125. Conventional use of B16 over the years has set the following levels of activity: T/C<125, no activity, T/C=125-150, weak activity; T/C=150-200, modest activity; T/C=200-300, high activity; T/C>300, with long term survivors; excellent, curative activity.

In the case of `CC[C@@]1(O)C(=O)OCc2c1cc1n(c2=O)Cc2c-1nc1ccccc1c2CO[C@@H]1C=C[C@H](O)[C@@H](CO)O1` [HAR7, 7-[2,3-dideoxy-α-D-erythro-hex-2-enopyranosyl]-oxymethylcamptothecin], the IC50 [1] is reported as 0.088 µg/mL (≈ 0.174 µM), the solubility at 24 h ([2]; aqueous buffer, water solubility, PBS pH 7.5, room temperature, 24 hr) is reported as 62 µg/mL (≈ 122 µM) and the water solubility improvement ([2]; compared to camptothecin) is reported as 16 fold. The “T/C (mean survival treated/control)” value (murine P388 leukemia; 20 mg/kg i.p. daily×5) was 192%, the “Tox Deaths” value (murine P388 leukemia; 20 mg/kg i.p. daily×5) was 0/10 and the “ΔWeight (%)” value (murine P388 leukemia; 20 mg/kg i.p. daily×5) was -1.7%. For the same molecule, the Survivors (murine P388 leukemia; 20 mg/kg i.p. daily×5) was 0/10, the “T/C (mean survival treated/control)” value (murine P388 leukemia; 40 mg/kg i.p. daily×5) was 223% and the “Tox Deaths” value (murine P388 leukemia; 40 mg/kg i.p. daily×5) was 0/10. For the same molecule, the “ΔWeight (%)” value (murine P388 leukemia; 40 mg/kg i.p. daily×5) was -16.0%, the Survivors (murine P388 leukemia; 40 mg/kg i.p. daily×5) was 3/10 and the 30-day survivors (murine P388 leukemia; 40 mg/kg, high dose) was “three”. The toxic deaths (murine P388 leukemia; at the high dose) was “no toxic deaths occurred”, the weight loss (murine P388 leukemia; at the high dose (MTD)) was 12%-16 and the “efficacy vs P388 leukemia” value (murine P388 leukemia; i.p. five day schedule, in words) was “high, curative efficacy; also recorded: excellent activity vs. P388”. The IC50 [3] was 0.173 µg/mL (≈ 0.342 µM), the cures (murine B16 melanoma; 20 mg/kg) was “no cures” and the “T/C (mean survival treated/control)” value (murine B16 melanoma; 20 mg/kg i.p. daily×5) was 191%. The “Tox Deaths” value (murine B16 melanoma; 20 mg/kg i.p. daily×5) was 0/10, the “ΔWeight (%)” value (murine B16 melanoma; 20 mg/kg i.p. daily×5) was -0.1% and the Survivors (murine B16 melanoma; 20 mg/kg i.p. daily×5) was 0/10. For the same molecule, the “T/C (mean survival treated/control)” value (murine B16 melanoma; 40 mg/kg i.p. daily×5) was 205%, the “Tox Deaths” value (murine B16 melanoma; 40 mg/kg i.p. daily×5) was 0/10 and the “ΔWeight (%)” value (murine B16 melanoma; 40 mg/kg i.p. daily×5) was -7.9%. The Survivors (murine B16 melanoma; 40 mg/kg i.p. daily×5) was 1/10 and the 60-day survivors (murine B16 melanoma; dose not stated) was “one”.

— patent US5932709A (University of Michigan, priority 1997, dated 1999)
